According to PubChem BioAssay AID1963433 (Molecular Pharmacology Branch, DTP, NCI, 2024):

Test system: 772245-204-R-J1-PDC complex spheroid growth
Assay: Anticancer human tumor 772245-204-R-J1-PDC patient-derived rhabdomyosarcoma cell line growth inhibition [Asc]
Details: for IC50: curve of first compound; for viability, T/C: stronger effect = lower value
Experimental: Multicellular complex tumor spheroid response to apoptosis pathway targeting inhibitors Alrizomadlin, Pelcitoclax, and Dasminapant in combination with a variety of drugs and investigational agents in selected tumor cell lines
The MDM2 inhibitor alrizomadlin, the Bcl-2/Bcl-xL inhibitor pelcitoclax, and the IAPs inhibitor dasminapant were evaluated both individually and in combination with standard of care and investigational anticancer small molecules within a complex spheroid model of solid tumors. . Complex spheroids include a stromal component modeled by human endothelial cells (HUVEC) and fibroblasts modeled by human mesenchymal stem cells (MSCs). The concentration ranges selected for each drug and investigational agent were based upon clinically achievable concentrations if the clinical Cmax of the agent was known.
Compounds. The drugs and investigational agents: alrizomadlin (APG-115; NSC831270), pelcitoclax (APG-1252; NSC835773), dasminapant (APG-1387;NSC834197), TAK-243 (NSC785004), copanlisib (NSC809693), olaparib (NSC753686), talazoparib (NSC767125), cobimetinib (NSC 768068), eltanexor (KPT-8602, NSC 794443), abemaciclib (NSC 768073), sotorasib (NSC818433), adagrasib (NSC 831453), MRTX-1133 (NSC 836407), Iadademestat (ORY1001, NSC 806812), and RMC-4630 (NSC839698), were obtained from the NCI Developmental Therapeutics Program Chemical Repository. The FDA-approved anticancer drug set is available from the Developmental Therapeutics Program at https://dtp.cancer.gov/organization/dscb/obtaining/available plates.htm. […] The stock solutions were prepared in dimethyl sulfoxide (DMSO, Sigma-Aldrich, St. Louis, MO, cat. D2650) at 800-fold the tested concentration and stored at -70 degrees C prior to their use. All drugs and investigational agents were tested over a range starting from a high concentration at or near the clinical Cmax and decreasing in half-log increments. If the clinical Cmax for an agent had not been determined, the highest concentration tested was 10 microM.
The patient-derived cancer (PDC) cell lines include five colon adenocarcinomas: 186277-243-T-J2-PDC, 616215-338-R-J1-PDC, 439559-082-T-J2-PDC, 463943-066-T-J2-PDC, and 519858-162-T-J1-PDC; three pancreatic carcinomas: 323965-272-R-J2-PDC, 521955-158-R6-J3-PDC, and 521955-158-R2-J5-PDC; two uterine sarcomas: 327498-152-R-J2-PDC and 993429-296-R-J1-PDC; two rhabdomyosarcomas: 755483-174-R-J1-PDC and 772245-204-R-J1-PDC; two soft tissue sarcomas: 126254-015-R-J1-PDC and 494315-158-R-J1-PDC; two malignant fibrous histiocytomas: 317291-083-R-J1-PDC and 596521-263-R-J1-PDC; two breast carcinomas: 171881-019-R-J1-PDC and 885512-296-R-J2-PDC; and one ovarian carcinoma: 6556581-035-R-J-PDC were obtained from the NCI PDMR, (https://pdmr.cancer.gov). The established cell lines HSSY-2 synovial sarcoma (RRID:CVCL 8719), SYO-1 synovial sarcoma (RRID:CVCL_7146), MPNST malignant peripheral neural sheath tumor were obtained from the Sloan Kettering Institute. The following established cell lines were purchased from the American Type Culture Collection (ATCC, Manassas, VA), Sor the received from the NCI repository:, PANC-1 pancreatic carcinoma (CRL-1469, RRID:CVCL_0480), OVCAR-5 ovarian carcinoma (RRID:CVCL_1628), OVCAR-8 ovarian carcinoma (RRID:CVCL_1629), , MCF-7 breast carcinoma (CRL-12584, RRID:CVCL_0031), MDA-MB-231 breast carcinoma (CRL-12532, RRID:CVCL_0062), NCI-H1876 small cell lung carcinoma (CRL-5902, RRID:CVCL_1503), NCI-H510A small cell lung carcinoma (HTB-184, RRID:CVCL_1565), NCI-H1417 (CRL-5869, RRID:CVCL_1469), and NCI-H196 small cell lung carcinoma (CRL-5823, RRID:CVCL_1509). Dr. Peter Houghton (Greehey Children's Cancer Research Institute, University of Texas Health Science Center, San Antonio, TX) provided Rh-18 rhabdomyosarcoma (RRID:CVCL_1659). Pooled donor human umbilical vein endothelial cells (HUVEC, Lonza, cat. CC-2519) and human mesenchymal stem cells (hMSC, Lonza, cat. PT-2501) were purchased from Lonza (Walkersville, MD).
Cell Culture. […]

[1] = second compound 0.01 µM, first compound 0.0316 µM
[2] = second compound 0.01 µM, first compound 0.1 µM
[3] = second compound 0.01 µM, first compound 0.316 µM
[4] = second compound 0.01 µM, first compound 1 µM
[5] = second compound 0.0316 µM, first compound 0.0316 µM
[6] = second compound 0.0316 µM, first compound 0.1 µM
[7] = second compound 0.0316 µM, first compound 0.316 µM
[8] = second compound 0.0316 µM, first compound 1 µM
[9] = second compound 0.1 µM, first compound 0.0316 µM
[10] = second compound 0.1 µM, first compound 0.1 µM
[11] = second compound 0.1 µM, first compound 0.316 µM
[12] = second compound 0.1 µM, first compound 1 µM
[13] = second compound 0.316 µM, first compound 0.0316 µM
[14] = second compound 0.316 µM, first compound 0.1 µM
[15] = second compound 0.316 µM, first compound 0.316 µM
[16] = second compound 0.316 µM, first compound 1 µM
[17] = second compound 1 µM, first compound 0.0316 µM
[18] = second compound 1 µM, first compound 0.1 µM
[19] = second compound 1 µM, first compound 0.316 µM
[20] = second compound 1 µM, first compound 1 µM
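Also: compound exposure lasted seven days.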
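For viability, T/C in this document: 100% = DMSO vehicle control viability.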

In the case of `CCN1CCN(Cc2ccc(Nc3ncc(F)c(-c4cc(F)c5nc(C)n(C(C)C)c5c4)n3)nc2)CC1` + CNC(C)C(=O)NC1CN(S(=O)(=O)c2cccc(S(=O)(=O)N3CCC4CCC(C(=O)NC(c5ccccc5)c5ccccc5)N4C(=O)C(NC(=O)C(C)NC)C3)c2)CCC2CCC(C(=O)NC(c3ccccc3)c3ccccc3)N2C1=O, the IC50 (second compound 0.01 µM) is reported as over 1 µM, the IC50 (second compound 0.0316 µM) is reported as over 1 µM and the IC50 (second compound 0.1 µM) is reported as over 1 µM. The IC50 (second compound 0.316 µM) was over 1 µM, the IC50 (second compound 1 µM) was over 1 µM and the viability, T/C (second compound 0.01 µM, first compound 0.00316 µM) was 104%. It also gave a viability, T/C (second compound 0.01 µM, first compound 0.01 µM) of 94.3%, a viability, T/C [1] of 90.8% and a viability, T/C [2] of 99.8%. For the same molecule, the viability, T/C [3] was 106%, the viability, T/C [4] was 108% and the viability, T/C (second compound 0.0316 µM, first compound 0.00316 µM) was 85.3%. For the same molecule, the viability, T/C (second compound 0.0316 µM, first compound 0.01 µM) was 95.3%, the viability, T/C [5] was 96% and the viability, T/C [6] was 94%. For the same molecule, the viability, T/C [7] was 102%, the viability, T/C [8] was 103% and the viability, T/C (second compound 0.1 µM, first compound 0.00316 µM) was 82.3%. It also gave a viability, T/C (second compound 0.1 µM, first compound 0.01 µM) of 89.9%, a viability, T/C [9] of 85.8% and a viability, T/C [10] of 104%. It also gave a viability, T/C [11] of 104%, a viability, T/C [12] of 115% and a viability, T/C (second compound 0.316 µM, first compound 0.00316 µM) of 103%. For the same molecule, the viability, T/C (second compound 0.316 µM, first compound 0.01 µM) was 94.1%, the viability, T/C [13] was 96.1% and the viability, T/C [14] was 89.4%. It also gave a viability, T/C [15] of 92.8%, a viability, T/C [16] of 104% and a viability, T/C (second compound 1 µM, first compound 0.00316 µM) of 87.8%. It also gave a viability, T/C (second compound 1 µM, first compound 0.01 µM) of 94.3%, a viability, T/C [17] of 102% and a viability, T/C [18] of 98.8%. It also gave a viability, T/C [19] of 105% and a viability, T/C [20] of 104%.
Work on `O=C(c1cc(Cc2n[nH]c(=O)c3ccccc23)ccc1F)N1CCN(C(=O)C2CC2)CC1` + CNC(C)C(=O)NC1CN(S(=O)(=O)c2cccc(S(=O)(=O)N3CCC4CCC(C(=O)NC(c5ccccc5)c5ccccc5)N4C(=O)C(NC(=O)C(C)NC)C3)c2)CCC2CCC(C(=O)NC(c3ccccc3)c3ccccc3)N2C1=O yielded an IC50 (second compound 0.01 µM) of over 10 µM, an IC50 (second compound 0.0316 µM) of over 10 µM and an IC50 (second compound 0.1 µM) of over 10 µM. The IC50 (second compound 0.316 µM) was over 10 µM, the IC50 (second compound 1 µM) was over 10 µM and the viability, T/C [1] was 93.6%. It also gave a viability, T/C [2] of 99.7%, a viability, T/C [3] of 99% and a viability, T/C [4] of 98.5%. For the same molecule, the viability, T/C (second compound 0.01 µM, first compound 3.16 µM) was 80.5%, the viability, T/C (second compound 0.01 µM, first compound 10 µM) was 81.1% and the viability, T/C [5] was 106%. The viability, T/C [6] was 104%, the viability, T/C [7] was 88.6% and the viability, T/C [8] was 113%. The viability, T/C (second compound 0.0316 µM, first compound 3.16 µM) was 96.1%, the viability, T/C (second compound 0.0316 µM, first compound 10 µM) was 97.7% and the viability, T/C [9] was 103%. It also gave a viability, T/C [10] of 99.2%, a viability, T/C [11] of 98% and a viability, T/C [12] of 86.7%. The viability, T/C (second compound 0.1 µM, first compound 3.16 µM) was 78.3%, the viability, T/C (second compound 0.1 µM, first compound 10 µM) was 76.5% and the viability, T/C [13] was 102%. The viability, T/C [14] was 106%, the viability, T/C [15] was 106% and the viability, T/C [16] was 94.5%. It also gave a viability, T/C (second compound 0.316 µM, first compound 3.16 µM) of 81.2%, a viability, T/C (second compound 0.316 µM, first compound 10 µM) of 78% and a viability, T/C [17] of 106%. The viability, T/C [18] was 94.1%, the viability, T/C [19] was 103% and the viability, T/C [20] was 97.2%. It also gave a viability, T/C (second compound 1 µM, first compound 3.16 µM) of 82.6% and a viability, T/C (second compound 1 µM, first compound 10 µM) of 94.8%.
